Experimental data from patent US20200230118A1, “USE OF BERBERINE OR ACTIVE METABOLITE THEREOF IN PREPARATION OF DRUG FOR PREVENTING AND/OR TREATING PHENYLKETONURIA” (Institute of Materia Medica, Chinese Academy of Medical …, priority 2017, published 2020).

What was measured:
[1] = tested on: α-methylphenylalanine induced phenylketonuria model of suckling rats; test: Therapeutic effect in α-methylphenylalanine induced phenylketonuria model of suckling rats; type: in vivo, SD suckling rats
Protocol: The phenylpyruvate concentration and ratio of phenylalanine/tyrosine in blood are the key indicators for evaluating the therapeutic effect in phenylketonuria model of suckling rats.
SD suckling rats (1 day old) were purchased from Beijing Vital River Laboratory Animal Technology Co., Ltd. All the animals and female rats were fed in SPF environment (21±2° C., 12-hour photoperiod) and had free access to food and water during the experiment. Berberine was purchased from the J&K Technology Co. LTD (Beijing, China). Phenylpyruvate, phenylalanine, and tyrosine were purchased from Solarbio Science&Technology Co. LTD (Beijing, China). α-Methylphenylalanine was purchased from Sinuokai Technology Co. LTD (Nanjing, China).
High-performance liquid chromatography-triple quadrupole tandem mass spectrometry (LC-MS/MS 8050, Shimadzu Corporation, Japan) was used to quantitatively determine the concentration of dopa, phenylalanine, tyrosine, and phenylpyruvate. Alltima C18 (5 μm, 4.6×150 mm) chromatography column was used in the experiment, and the column temperature was maintained at 40° C. The mobile phase to measure L-dopa was water-formic acid (100: 0.2 v/v) and acetonitrile. The condition of gradient elution was as follows (A: B, 0 min, 90:10; 2.5 min, 80:20; 2.51 min, 5:95; 5 min, 5:95; 5.01 min, 90:10; 8 min 90:10). The flow rate was 0.8 mL/min. Multi-reaction monitoring mode was used for quantization, and the quantitative ion pair of dopa was 198.15→[…] (m/z). Phenylalanine, tyrosine, and phenylpyruvate level were determined using Alltima C18 (5 μm, 4.6×150 mm) chromatography column at column temperature of 40° C. The mobile phase contained water-formic acid (100:0.1 v/v) and methanol. The condition of gradient elution was as follows (A: B, 0 min, 90:10; 1 min, 90:10; 1.01 min, 60:40; 5 min, 5:95; 7 min, 5:95; 7.01 min 90:10; 10 min 90:10). The flow rate was 0.8 mL/min. Multi-reaction monitoring mode was used for quantization. The quantitative ion pair was: phenylalanine, 165.85→120.20; tyrosine, 182.00→136.10; phenylpyruvate, 163.00→91.00.
Experimental design: The animals were divided into 6 groups, including: the normal control group, the model group, the low-dose of oral berberine treated model group, the high-dose of oral berberine treated model group, the intraperitoneal berberine treated model group, and the oral berberine treated pseudo-germ-free model group. The establishment of model started at 2 days old of SD suckling rats, which were administrated for 10 days, and then they were treated for 7 days.
(1) Normal control group: normal saline (s.c.).
(2) Model group: a-methylphenylalanine (s.c. 50 mg/kg/d), and phenylalanine (s.c. 200 mg/kg/d);
(3) Low-dose of oral berberine treated model group: α-methylphenylalanine (s.c. 50 mg/kg/d), phenylalanine (s.c. 200 mg/kg/d), berberine (oral, 100 mg/kg/d);
(4) High-dose of oral berberine treated model group: α-methylphenylalanine (s.c. 50 mg/kg/d), phenylalanine (s.c. 200 mg/kg/d), berberine (oral, 200 mg/kg/d);
(5) Intraperitoneal berberine treated model group: α-methylphenylalanine (s.c. 50 mg/kg/d), phenylalanine (s.c. 200 mg/kg/d), berberine (i.p. 20 mg/kg/d);
(6) Oral berberine treated pseudo-germ-free model group: α-methylphenylalanine (s.c. 50 mg/kg/d), phenylalanine (s.c. 200 mg/kg/d), berberine (oral, 200 mg/kg/d); Antibiotic dose: cefadroxil (100 mg/kg/d), oxytetracycline (300 mg/kg/d), erythromycin (300 mg/kg/d).

[2] = tested on: ICR mice; test: Effect of dihydroberberine on blood phenylpyruvate and tyrosine in ICR mice; type: in vivo
Protocol: The concentrations of phenylpyruvate and tyrosine in blood are the key indicators to evaluate the therapeutic effect for phenylketonuria.
(§1) ICR mice (male, 20±2 g) were purchased from Beijing Vital River Laboratory Animal Technology Co., Ltd. All the animals were fed in SPF environment (21±2° C., 12-hour photoperiod) and had free access to food and water during the experiment. Berberine was purchased from the J&K Technology Co. LTD (Beijing, China). Dihydroberberine was purchased from the Mansite Biology & Technology Co. LTD (Chengdu, China). Phenylpyruvate, phenylalanine, and tyrosine were purchased from Solarbio Science&Technology Co. LTD (Beijing, China).
Experimental design: The animals were divided into three groups, including the control group, the 200 mg/kg dihydroberberine oral treated group at 12 h, the 200 mg/kg dihydroberberine oral treated group at 24 h.
(§2) (1) The control group: saline 0.2 mL (oral);
(2) The 100 mg/kg dihydroberberine singe oral treated group at 12 h: 100 mg/kg […] (oral);
(3) The 100 mg/kg dihydroberberine singe oral treated group at 24 h: 100 mg/kg […] (oral).

[3] = tested on: ICR mice; test: Effect of jatrorrhizine on blood phenylpyruvate and tyrosine in ICR mice; type: in vivo
Protocol: The concentrations of phenylpyruvate and tyrosine in blood are the key indicators to evaluate the therapeutic effect for phenylketonuria in children.
as §1, with “China).” for “China). Dihydroberberine was purchased from the Mansite Biology & Technology Co. LTD (Chengdu, China).”
Experimental design: The animals were divided into three groups, including the control group, the 200 mg/kg jatrorrhizine oral treated group at 12 h, the 200 mg/kg jatrorrhizine oral treated group at 24 h.
as §2
(2) The 200 mg/kg jatrorrhizine singe oral treated group at 12 h: 200 mg/kg jatrorrhizine (oral);
(3) The 200 mg/kg jatrorrhizine single oral treated group at 24 h: 200 mg/kg jatrorrhizine (oral).

With `COc1ccc2cc3[n+](cc2c1OC)CCc1cc2c(cc1-3)OCO2` [berberine] the “Phenylalanine/tyrosine ratio in blood” value ([1]; intraperitoneal injection 20 mg/kg/d (FIG. 2)) was “not significantly changed”, the “Concentration of dopa in brain” value ([1]; intraperitoneal injection 20 mg/kg/d (FIG. 3)) was “not significantly changed” and the “Concentration of dopamine in brain” value ([1]; intraperitoneal injection 20 mg/kg/d (FIG. 4)) was “not significantly changed”. The “Phenylpyruvate level in blood” value ([1]; intraperitoneal injection 20 mg/kg/d, 7 days (FIG. 1)) was “not significantly changed”, the “Phenylpyruvate level in blood” value ([1]; oral 100 and 200 mg/kg/d for 7 days, vs model group, dose-dependent (FIG. 1)) was “significantly decreased” and the “Phenylalanine/tyrosine ratio in blood” value ([1]; oral 100 and 200 mg/kg/d, vs model group, dose-dependent (FIG. 2)) was “significantly decreased”. The “Concentration of dopa in brain” value ([1]; oral 100 and 200 mg/kg/d, vs model group, dose-dependent (FIG. 3)) was “significantly increased”, the “Concentration of dopamine in brain” value ([1]; oral 100 and 200 mg/kg/d, vs model group, dose-dependent (FIG. 4)) was “significantly increased” and the “Level of tyrosine in blood” value ([1]; oral administration) was “increase”. The “Phenylpyruvate level in blood” value ([1]; pseudo-germ-free (antibiotic treated) model, oral 200 mg/kg/d (FIG. 1)) was “not significantly changed”, the “Phenylalanine/tyrosine ratio in blood” value ([1]; pseudo-germ-free model, oral 200 mg/kg/d (FIG. 2)) was “not significantly changed” and the “Concentration of dopa in brain” value ([1]; pseudo-germ-free model, oral 200 mg/kg/d (FIG. 3)) was “not significantly changed”. The “Concentration of dopamine in brain” value ([1]; pseudo-germ-free model, oral 200 mg/kg/d (FIG. 4)) was “not significantly changed”.
For `COc1ccc2c(c1OC)CN1CCc3cc4c(cc3C1=C2)OCO4` [dihydroberberine], the “Ratio of phenylalanine/tyrosine in blood” value ([2]; oral administration) was “reduce”, the “Tyrosine level in blood” value ([2]; single oral 100 mg/kg (200 mg/kg), 12 h and 24 h, vs control (FIG. 7)) was “significantly increased” and the “Phenylpyruvate level in blood” value ([2]; single oral 100 mg/kg (200 mg/kg), 12 h and 24 h, vs control (FIG. 8)) was “significantly decreased”.
`COc1cc2c(cc1O)CC[n+]1cc3c(OC)c(OC)ccc3cc1-2` [jatrorrhizine] was tested, and the “Ratio of phenylalanine/tyrosine in blood” value ([3]; oral administration) was “reduce”, the “Tyrosine level in blood” value ([3]; single oral 200 mg/kg, 12 h and 24 h, vs control (FIG. 5)) was “significantly increased” and the “Phenylpyruvate level in blood” value ([3]; single oral 200 mg/kg, 12 h and 24 h, vs control (FIG. 6)) was “significantly decreased”.
